The source of these data is ChEMBL document CHEMBL1141688, “Design, synthesis and preliminary biological evaluation of new hydroxamate histone deacetylase inhibitors as potential antileukemic agents” (Bioorg Med Chem Lett, 2008).

The subject of assay [1] is NB-4. As to the kind of experiment: Induction of apoptosis in human NB4 cells assessed as viable cells at 2.5 uM after 48 hrs using annexin V-fluos/propidium iodide staining by cytofluorimetric analysis. Type of assay: functional. The note with it: NB-4, 48 h, read-out: Activity.
The test system of assay [2] is NB-4. As to the kind of experiment: Induction of apoptosis in human NB4 cells assessed as late apoptotic cells at 2.5 uM after 48 hrs using annexin V-fluos/propidium iodide staining by cytofluorimetric analysis. It counts as functional.
The test system of assay [3] is NB-4. Briefly: Induction of apoptosis in human NB4 cells assessed as early apoptotic cells at 2.5 uM after 48 hrs using annexin V-fluos/propidium iodide staining by cytofluorimetric analysis. It counts as functional.
Assay [4] has as its system NB-4. As to the kind of experiment: Induction of apoptosis in human NB4 cells assessed as necrotic cells at 2.5 uM after 48 hrs using annexin V-fluos/propidium iodide staining by cytofluorimetric analysis. Type of assay: functional.
Assay [5] has as its system NB-4. Briefly: Antiproliferative activity against human NB4 cells after 48 hrs. Type of assay: functional, cell-based. Particulars: NB-4, 48 h.
Assay [6] relates to NB-4. Briefly: Induction of apoptosis in human NB4 cells assessed as late apoptotic cells at 5 uM after 48 hrs using annexin V-fluos/propidium iodide staining by cytofluorimetric analysis. Type of assay: functional.
For assay [7], the system named is NB-4. Briefly: Induction of apoptosis in human NB4 cells assessed as necrotic cells at 5 uM after 48 hrs using annexin V-fluos/propidium iodide staining by cytofluorimetric analysis. It counts as functional.
Assay [8] deals with NB-4. Briefly: Induction of apoptosis in human NB4 cells assessed as early apoptotic cells at 5 uM after 48 hrs using annexin V-fluos/propidium iodide staining by cytofluorimetric analysis. It counts as functional.
For assay [9], the system named is NB-4. Briefly: Induction of apoptosis in human NB4 cells assessed as viable cells at 5 uM after 48 hrs using annexin V-fluos/propidium iodide staining by cytofluorimetric analysis. The note with it: NB-4, 48 h, read-out: Activity. It counts as functional.

In the case of `C[C@H]1N=C(c2ccccc2)c2cc(C#CCCCC(=O)NO)ccc2N(C)C1=O`, the viability at 2.5 µM in [1] worked out at 89.8%. Moreover, the Activity in assay [2] was 8.3%; in [3] it was 1.5%; in assay [4] it was 0.4%. Also, the IC50 in assay [5] came to 4.8 µM.
`CN1C(=O)CN=C(c2ccccc2)c2cc(C#CCCCC(=O)NO)ccc21` returned an IC50 in assay [5] of 0.62 µM. That is a sub-micromolar value.
Still for that read-out and setting: for `C[C@@H]1N=C(c2ccccc2)c2cc(NC(=O)CCCCCCC(=O)NO)ccc2N(C)C1=O` the value was 5.83 µM.
Still for that read-out and setting: as for `C[C@H]1N=C(c2ccccc2)c2cc(NC(=O)CCCCCCC(=O)NO)ccc2N(C)C1=O`, the figure is 3.71 µM.
In the case of `CN1C(=O)CN=C(c2ccccc2)c2cc(NC(=O)CCCCCCC(=O)NO)ccc21`, the IC50 in assay [5] came out at 2.5 µM. This IC50 and that of the compound before are within 1.5-fold of each other.
Turning to `C[C@@H]1N=C(c2ccccc2)c2cc(C#CCCCC(=O)NO)ccc2N(C)C1=O`, the viability at 2.5 µM in [1] turned out to be 12%. Also, the values for the Activity in assay [2], in assay [3] and in assay [4] were 56.6%, 30.8% and 0.6%, respectively. Further, inhibition in assay [5] was half-maximal at 0.61 µM (IC50).
`CC1N=C(c2ccccc2)c2cc(NC(=O)CCCCCCC(=O)NO)ccc2N(C)C1=O` (racemic) registered an IC50 in [5] of 4.09 µM.
Turning to `CC1N=C(c2ccccc2)c2cc(C#CCCCC(=O)NO)ccc2N(C)C1=O` (racemic), the Activity in assay [6] turned out to be 54.1%; in assay [7], 1.7%; in [8], 35.6%. For the same compound, the viability at 5 µM in assay [9] turned out to be 8.6%. In [5], this compound yielded an IC50 of 1.26 µM.
